From patent US20240374677A1, “VARIOUS COMPOUNDS FOR THE TREATMENT OF NEUROFIBROMATOSIS TYPE 1” (PUSAN NATIONAL UNIVERSITY INDUSTRY-UNIVERSITY COOPERATION …, priority 2023, published 2024)

How the values were obtained:
[1] = test system: NF1-GRD1 protein; assay: Nano-Glo HiBiT lytic assay of NF1-GRD1 protein in stable 293T cells; type: cell-based, human; conditions: FIG. 9; for treatment time at which the maximum effect was shown: 6 hours and 24 hours tested
Method: The cells were treated in the same manner as in Experimental Example 1 except that the treatment time was 6 hours and 24 hours, respectively, and the results of measuring the activity in each case were illustrated in FIG. 9.
The cells were treated in the same manner as in Experimental Example 1, except that the treatment time was 6 hours and 24 hours, respectively, and the concentration of PN-NF27 was 0 μM, 0.25 μM, 0.5 μM, 1.0 μM, and 5.0 μM, and the results of measuring the activity in each case were illustrated in FIG. 8.

[2] = test system: NF1 protein; assay: Western blot of NF1 protein in 293T cells; type: cell-based, human; conditions: 5 μM, 6 hours, FIG. 10
Method: (§1) The effect of increasing NF1 protein in human renal epithelial-like cells (293T), human lung cancer cells (A549), and mouse embryonic fibroblasts (MEF) was analyzed using Western blot. Specifically, the cells incubated in a 10% FBS+DMEM culture medium for 48 hours were treated with 5 μM each of compounds for 6 hours, and then the quantified protein samples were subjected to electrophoresis. After electrophoresis, the proteins in the gel were transferred to a PVDF membrane and then Western blot was performed using NF1 antibody (Abcam, Cat#ab128054).

[3] = test system: NF1 protein; assay: Western blot of NF1 protein in A549 cells; type: cell-based, human; conditions: 5 μM, 6 hours, FIG. 10
Method: as §1

[4] = test system: NF1 protein; assay: Western blot of NF1 protein in mouse embryonic fibroblasts (MEF); type: cell-based; conditions: for NF1 protein increasing effect (Western blot): MEF cells, 6 hours, compared to other substances, FIG. 10; for NF1 protein quantification (Western blot) vs control group: MEF
Method: as §1
In addition, the effect of increasing NF1 protein in mouse embryonic fibroblasts (MEF) was analyzed using Western blot. A specific method was as described in Experimental Example 3.
The effect of increasing NF1 protein in mouse embryonic fibroblasts (MEF) was analyzed using Western blot. A specific method was as described in Experimental Example 3.

[5] = test system: NF1 protein; assay: Western blot of NF1 protein in skin cells of NF1 patients; type: cell-based, human; conditions: 1 μM; normal cells and NF-09, NF-21, NF-11 cells, FIG. 13
Method: as §1
The effect of increasing NF1 protein in skin cells NF-09, NF-21, and NF-11 of NF1 patients was analyzed using Western blot. A specific method was as described in Experimental Example 3.

[6] = test system: human lung cancer cells A549; assay: MTT assay in A549 cells; type: cell-based; conditions: A549, various concentrations, 72 hours, FIG. 11
Method: (§2) Human lung cancer cells A549 and A549GR were treated with PN-NF27, PN-NF28, PN-NF30, PN-NF38, and PN-NF41, respectively, and then the MTT assay results were shown. Specifically, A549 and A549GR (anticancer resistant) cells incubated for 24 hours in a 96 well plate were treated with various concentrations of compounds for 72 hours, respectively, and then added with 10 μl of 3-(4,5-dimethylthiazole-2-yl)-2,5-diphenyltetrazolium bromide (MTT) and after 2 hours, the absorbance was measured at 550 nm.

[7] = test system: A549GR (anticancer resistant) cells; assay: MTT assay in A549GR cells; type: cell-based, human; conditions: various concentrations, 72 hours, FIG. 11
Method: as §2

[8] = test system: skin cells NF-09, NF-21, and NF-11 of NF1 patients; assay: MTT assay in skin cells of NF1 patients; type: cell-based, human
Method: The cell proliferation inhibitory effect of PN-NF27 was confirmed by an MTT method using skin cells NF-09, NF-21, and NF-11 of NF1 patients. […]
(§3) The cell proliferation inhibitory effect of PN-NF38 was confirmed using skin cells NF-09, NF-21, and NF-11 of NF1 patients. Specifically, skin fibroblasts (passage>8) incubated for 48 hours were treated with PN-NF38 at 0, 0.1, 1, 2.5, 5, and 10 μM for 24 hours, and then added with 3-(4,5-dimethylthiazol-2-yl)-2,5-diphenyltetrazolium bromide (MTT) and reacted for 1 hours, and then the absorbance was measured at 550 nm.
as §3, with “PN-NF41” for “PN-NF38”, “24” for “48”, “5” for “PN-NF38 at 0, 0.1, 1, 2.5, 5, and 10”, “μM of PN-NF41” for “μM”, “72” for “24”

[9] = test system: NF1-GRD1 protein; assay: Nano-Glo HiBiT lytic assay of NF1-GRD1 protein in stable 293T cells; type: cell-based, human; conditions: for effect of increasing NF1 protein, times higher than control group: 293T cells stably expressing NF1-GRD1, treated 24 hours, luciferase activity vs DMSO-treated control, FIG. 8; for concentration showing the highest activity: 0-5.0 μM tested
[10] = test system: HCT-8, HCT-15, HCT-116, PANC1, and PC3 cells; assay: MTT assay in colon, pancreatic and prostate cancer cells; type: cell-based, human; conditions: 0, 0.1, 0.5, 1, 5, 10 μM, 72 hours, FIG. 17
Method: The cell proliferation inhibitory effect of PN-NF30 was confirmed using human colon cancer cells HCT-8, HCT-15, and HCT-116, human pancreatic cancer cells PANC1, and human prostate cancer cells PC3. Specifically, the HCT-8, HCT-15, HCT-116, PANC1, and PC3 cells incubated for 24 hours in a 96 well plate were treated with compounds at concentrations of 0, 0.1, 0.5, 1, 5, and 10 μM for 72 hours, respectively, and then added with 10 μl of 3-(4,5-dimethylthiazole-2-yl)-2,5-diphenyltetrazolium bromide (MTT) and after 1 hours, the absorbance was measured at 550 nm.

## C/C=C(/C)C(=O)O[C@H]1C(C)=C[C@]23C(=O)[C@@H](C=C(COC(C)=O)[C@@H](O)[C@]12O)[C@H]1[C@@H](C[C@H]3C)C1(C)C [PN-NF27, 20-O-acetylingenol-3-angelate]
[1]
  treatment time at which the maximum effect was shown: ≤ 6 h
[1]; treatment time 6 hours
  maximum effect compared to the control group: 24 fold
[2]
  NF1 protein increasing effect (Western blot): excellent
[3]
  NF1 protein increasing effect (Western blot): superior to other substances
[4]; 5 μM
  NF1 protein increasing effect (Western blot): superior to other substances
[4]; 1 μM, FIG. 14
  NF1 protein quantification (Western blot) vs control group: tended to increase
[5]
  NF1 protein (Western blot) treated vs not treated: tended to increase
[6]
  cell proliferation (MTT): effectively inhibited
[7]
  cell proliferation (MTT): effectively inhibited
[8]; 1 μM (result text), 72 hours, normal cells and NF-09, NF-21, NF-11 cells, FIG. 15
  cell proliferation (MTT) treated vs not treated: tended to be inhibited
[9]
  effect of increasing NF1 protein, times higher than control group: about 6 times
[9]; PN-NF27 at 0.25, 0.5, 1.0, 5.0 μM, 6 hours and 24 hours, FIG. 12
  activity compared with the case not treated (0 μM): higher activity
[9]; incubated for 24 hours, FIG. 12
  concentration showing the highest activity: 0.5 µM
[9]; treated for 6 hours, FIG. 12
  concentration showing the highest activity: 5.0 µM

## CN1CCc2cccc3c2[C@H]1Cc1ccc(O)c(O)c1-3.CN1CCc2cccc3c2[C@H]1Cc1ccc(O)c(O)c1-3.Cl.Cl.O [PN-NF30, R(−) Apomorphine hydrochloride hemihydrate, reference compound]
[3]
  NF1 protein increasing effect (Western blot): superior to other substances
[4]; 5 μM, FIG. 16
  NF1 protein quantification (Western blot) vs control group: tended to increase
[6]
  cell proliferation (MTT): effectively inhibited
[7]
  cell proliferation (MTT): effectively inhibited
[10]
  cell proliferation (MTT), concentration dependence: tended to effectively inhibit cell proliferation as the concentration increased
[9]
  effect of increasing NF1 protein, times higher than control group: about 2 times

## C=C(NC(=O)C(=C)NC(=O)c1csc(C2=N[C@@H]3c4csc(n4)[C@H]4NC(=O)c5csc(n5)[C@H]([C@](C)(O)[C@@H](C)O)NC(=O)[C@H]5CSC(=N5)/C(=C/C)NC(=O)[C@H]([C@@H](C)O)NC(=O)c5csc(n5)[C@]3(CC2)NC(=O)[C@H](C)NC(=O)C(=C)NC(=O)[C@H](C)NC(=O)[C@H]([C@@H](C)CC)N[C@@H]2C=Cc3c([C@H](C)O)cc(nc3[C@H]2O)C(=O)O[C@@H]4C)n1)C(N)=O [PN-NF38, Thiostrepton]
[1]
  treatment time at which the maximum effect was shown: 24 h
[1]; treatment time 24 hours
  maximum effect compared to the control group: 11 fold
[3]
  NF1 protein increasing effect (Western blot): superior to other substances
[4]; 5 μM
  NF1 protein increasing effect (Western blot): superior to other substances
[4]; 2 μM, FIG. 18
  NF1 protein quantification (Western blot) vs control group: tended to increase
[6]
  cell proliferation (MTT): effectively inhibited
[7]
  cell proliferation (MTT): effectively inhibited
[8]; 0, 0.1, 1, 2.5, 5, 10 μM, 24 hours, FIG. 19
  cell proliferation (MTT), concentration dependence: tended to be effectively inhibited as the concentration of PN-NF38 cells increased
[8]; 10 μM, 24 hours, FIG. 19
  cell viability (MTT): less than 0.3
[9]
  effect of increasing NF1 protein, times higher than control group: about 20 times
